A short description of the experiment: Time-Resolved Fluorescence Resonance Energy Transfer (TR-FRET) Assay: The inhibition of the Mcl-1/Bim interaction was measured using a time-resolved fluorescence resonance energy transfer (TR-FRET) assay. The recombinant human Mcl-1 (C-terminally 6ÃHis tagged Mcl-1 containing residues 171-327) was generated at Amgen Inc (Thousand Oaks, Calif.). A biotinylated peptide derived from human Bim …. In general terms: In TR-FRET formats the signal depends on donor and acceptor labels being close together.

Molecules are shown by their SMILES.

Description: Time-Resolved Fluorescence Resonance Energy Transfer (TR-FRET) Assay: The inhibition of the Mcl-1/Bim interaction was measured using a time-resolved fluorescence resonance energy transfer (TR-FRET) assay. […] A biotinylated peptide derived from human Bim (residues 51-76) was purchased from CPC Scientific (San Jose, Calif.). The TR-FRET assay was conducted in a 384-well white OptiPlate (PerkinElmer, Waltham, Mass.) in a total volume of 40 uL. […] The reaction plates were further incubated overnight and then were read on an EnvisionÂ multimode reader (PerkinElmer). […] The IC50 values of test compounds were determined from duplicate data by analyzing competition curves using a four-parameter sigmoidal model in GraphPad Prism.

A word on the IC50: it is the concentration at which inhibition is half-maximal. On to `CO[C@@]1(CN2CCN3CCC(F)(F)C[C@@H]3C2)/C=C\C[C@H](C)[C@@H](C)S(=O)(=O)NC(=O)c2ccc3c(c2)N(C[C@@H]2CC[C@H]21)C[C@@]1(CCCc2cc(Cl)ccc21)CO3`, for which the IC50 was determined as 0.494 nM.

In the case of `CCCCN1CCN(C[C@]2(OC)/C=C/C[C@H](C)[C@@H](C)S(=O)(=O)NC(=O)c3ccc4c(c3)N(C[C@@H]3CC[C@H]32)C[C@@]2(CCCc3cc(Cl)ccc32)CO4)CC1`, the IC50 stood at 0.225 nM.

In the case of `C[C@@H]1[C@@H](C)C/C=C\[C@](O)(CN2CCN3CCCC[C@@H]3C2)[C@@H]2CC[C@H]2CN2C[C@@]3(CCCc4cc(Cl)ccc43)COc3ccc(cc32)C(=O)NS1(=O)=O`, the half-inhibitory concentration (IC50) stood at 0.097 nM.

(Values after ChEMBL document CHEMBL5728073, “Compounds that inhibit Mcl-1 protein” (2020).)
